Measured values taken from patent US20240246963A1, “BIFUNCTIONAL COMPOUNDS AND PHARMACEUTICAL USES THEREOF” (RISEN (SUZHOU) PHARMA TECH CO., LTD., priority 2022, published 2024).

What was measured:
[1] = tested on: PSN-1 cells (G12R); assay: Cell proliferation study (Cell Titer Glo, 72 hours), PSN-1; type: cell-based; conditions: Homo sapiens, PSN1
Description: (§1) Aspc-1(Cobioer, CBP60546), GP2D(Cobioer, CBP60683), Mia paca2 (Cobioer, CBP60136), NCI-H358 (Cobioer, CBP60544), H727 (Cobioer, CBP60182), MKN-1 (Cobioer, CBP60486), and PSN1 (Cobioer, CBP61215) cells in exponential growth phase were seeded into a 96-well plate (Greiner, 655090) at density of 3E3/well. Cells were cultured overnight at 37° C. with 5% CO2. On the next day, cells were treated with compound at various concentrations for 72 hours in 37° C., 5% CO2 incubator (final DMSO concentration was 0.1%). After treatment, 100 μL Cell Tier Glo (Promega, G7573) were added to every well on the cell plate and incubated at room temperature (RT) for 10 minutes. Cell growth status was measured with Cell Tier Glo (Promega, G7573) following manufacturer's directions. Inhibition level was calculated according to the following formula: […]
(§2) where the “Maximum Signal” are signal of wells containing DMSO without compound; the “Minimum Signal” are signal of wells recorded at Day 0 prior to commencement of the experiment; and the “Test compound signal” are signal of wells containing compound at established concentrations.
(§3) The inhibition curve was obtained with GraphPad 7.0 software using four-parameter equation.

[2] = molecular target: T1, RAS G12D protein (Homo sapiens, UniProt P01116, G12D); assay: Protein degradation study (western blot) in Aspc-1 cells; type: cell-based; conditions: for percent protein degradation at 0.01 µM: 0.010 μM compound; for percent protein degradation at 0.1 µM: 0.1 μM compound; for Dmax: ASPC1, G12D in Aspc-1 cells; for DC50: half-maximum degradation concentration on G12D in Aspc-1 cells
T1 construct: host or cells: Aspc-1 (AsPC-1) cells
Description: Aspc-1 (Cobioer, CBP60546) cells in exponential growth phase were inoculated on a 6-well cell culture plate (Corning, 3516) at density of 1E6/well; and cells in the plate were cultured in a 37° C. incubator containing 5%-carbon dioxide. The next day, test compounds were dissolved in DMSO (Sigma, RNBF5902) for the preparation of a 10-mM concentration stock solution. The stock solution was diluted with complete medium (RPMI-1640 supplemented with 10% fetal bovine serum, 1% penicillin-streptomycin), yielding working solutions of various concentrations. The plate, after the addition of compounds, was placed in a 5% carbon dioxide incubator, and incubated at 37° C. for 24 hours (final DMSO concentration was 0.1%). The plate was then removed from the incubator, and the cells were washed twice with precooled PBS (Gibco, 14190250), followed by addition of 80 μL RIPA (CST, 9806S) lysis buffer (containing protease inhibitor (Invitrogen™, AM2696)) to each well. The adherent cells were scraped off with a cell scraper, and the cell lysate was transferred to a 1.5 mL centrifuge tube followed with a 30-minute incubation on ice. The lysate was then clarified with centrifugation at 12000 rpm for 10 min at 4° C. The supernatant was transferred into a new 1.5 mL centrifuge tube, and protein concentration was measured with BCA protein detection kit (Thermo Fisher, 23225). G12D protein level was assessed by western blot. A mixture of cell lysate (40 μL) and loading buffer (10 μL, 5×SDS (Beyotime, P0015L)) was denatured in a water-bath at 95° C. for 10 min. The denatured protein sample, at 30 μg/well, was loaded into a corresponding well of a 4-20% Bis-Tris gel (Kingsley, M00656). Protein samples were initially electrophoresed at 80 V for 30 minutes, followed by 120 V for 40 minutes, until the bromophenol blue strip ran to an appropriate position. After electrophoresis, iBlot2 (Life Technologies, IB21001) was used to transfer the separated samples onto PVDF film. The PVDF membrane was washed with double-distilled water and then blocked in TBST (Thermo Scientific, 28360) buffer containing 5% non-fat milk, for 2 hours. Blocked membrane was rinsed with tris-buffered saline tween-2 (Thermo Scientific, 28360, TBST) three times, 10 minutes each. Membrane was then incubated with 1:1000 diluted RAS Gi2D primary antibody (CST, cat #14429S) overnight at 4° C. Membrane was rinsed in a way described previously followed by 1 hour incubation of secondary antibody at room temperature. After washing the film for three times with TBST, ECL color developing solution was applied, and image was captured with Biorad Chemi Doc gel imager. The band gray value was quantified (Image Lab), and protein degradation level was calculated according to the following formulas:
Level of RAS G12D protein expression=(RAS G12D−compound/β-Actin)−compound/(RAS G12D−DMSO/β-Actin−DMSO)
Level of degradation (%)=(1−Rate of RAS G12D protein expression)×100
Symbols of −, +, ++, +++, ++++, +++++ indicate that the degradation level of Ras protein induced by test compounds was 10% or less, 10 to 30%, 30 to 60%, 60 to 70%, 70 to 75%, and greater than 75%, respectively. “NT” indicates not tested.
“NT” indicates not tested.

[3] = tested on: NCI-H727 cells (G12V); assay: Cell proliferation study (Cell Titer Glo, 72 hours), NCI-H727; type: cell-based; conditions: Homo sapiens
Description: as §1, §2, §3

[4] = tested on: AsPc-1 cells (G12D); assay: Cell proliferation study (Cell Titer Glo, 72 hours), AsPc-1; type: cell-based; conditions: Homo sapiens, ASPC1
Description: as §1, §2, §3

[5] = tested on: GP2D cells (G12D); assay: Cell proliferation study (Cell Titer Glo, 72 hours), GP2D; type: cell-based
Description: as §1, §2, §3

[6] = tested on: MKN1 cells (WT); assay: Cell proliferation study (Cell Titer Glo, 72 hours), MKN1; type: cell-based; conditions: Homo sapiens, MKN-1
Description: as §1, §2, §3

[7] = tested on: NCI-H358 cells (G12C); assay: Cell proliferation study (Cell Titer Glo, 72 hours), NCI-H358; type: cell-based; conditions: Homo sapiens
Description: as §1, §2, §3

[8] = Pharmacokinetics in male ICR mice; type: in vivo; conditions: mouse, plasma
[9] = tested on: GP2D cells; assay: Tumor xenograft study (GP2D); type: in vivo, Balb/c nude mice (Nu/Nu)
Description: All studies were conducted in accordance with all applicable regulations and guidelines of the Institutional Animal Care and Use Committee (IACUC). Mice were maintained under pathogen-free conditions, and food and water were provided ad libitum. 6-8-week-old female, Balb/c nude mice (Nu/Nu) were injected subcutaneously with GP2D cells in 100 μL of PBS and Matrigel matrix in the right hind flank with 5×10^6 cells 50:50 cells: Matrigel. Mouse health was monitored daily, and caliper measurements began when tumors were palpable. Tumor volume measurements were determined utilizing the formula 0.5×L×W^2 in which L refers to length and W refers to width of each tumor. When tumors reached an average tumor volume of ˜200 mm^3, mice were randomized into treatment groups. The animals were divided into at least five mice per group. Mice were treated with test compound. Animals were monitored daily, and body weights and tumors were measured twice per week. “TGI” means tumor growth inhibition value.

[10] = tested on: Mia paca2 cells (G12C); assay: Cell proliferation study (Cell Titer Glo, 72 hours), Mia paca2; type: cell-based; conditions: Homo sapiens, MIA PaCa-2
Description: as §1, §2, §3

[11] = ASPC1, 24 h, Aspc-1 cells, 24 hours, read-out: Rate of protein degradation (%)

T1 sequence (P01116 1-188 isoform P01116-2 G12D): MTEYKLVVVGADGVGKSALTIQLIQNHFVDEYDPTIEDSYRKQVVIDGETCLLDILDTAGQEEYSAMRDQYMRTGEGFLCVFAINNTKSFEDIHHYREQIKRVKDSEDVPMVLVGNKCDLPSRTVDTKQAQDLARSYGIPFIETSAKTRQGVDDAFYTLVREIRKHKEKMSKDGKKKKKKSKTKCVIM

| percent protein degradation at 0.01 µM [2, 11] [%] | percent protein degradation at 0.1 µM [2, 11] [%] | Dmax [2] [%] | DC50 [2] [nM] | IC50 [3] [nM] | IC50 [4] [nM] | IC50 [6] [nM] | IC50 [7] [nM] | AUC(0-t) ([8]; IV (3 mg/kg)) [ng·h/mL] | half-life ([8]; IV (3 mg/kg)) [h] | AUC(0-t) ([8]; PO (10 mg/kg)) [ng·h/mL] | half-life ([8]; PO (10 mg/kg)) [h] | IC50 [10] [nM] | percent protein degradation at 0.005 µM ([2]; ASPC1, 24 h, 0.005 μM compound, Aspc-1 cells, 24 hours, read-out: Rate of protein degradation (%)) [%] | Structure (SMILES) | IC50 [1] [nM] | IC50 [5] [nM] | TGI (%) ([9]; IP, 10 mg/kg, q3d, 21 days) | TGI (%) ([9]; PO, 30 mg/kg, bid, 14 days) |
| --- | --- | --- | --- | --- | --- | --- | --- | --- | --- | --- | --- | --- | --- | --- | --- | --- | --- | --- |
| > 75 | > 75 | 78 | 1 to 10 | 2.45 | 15.6 | 400 | 17.6 | 1330 | 14.3 | 103 | 6.52 | 3.38 | – | CCc1c(F)ccc2cc(O)cc(-c3ncc4c(N5CCC[C@@](C)(O)C5)nc(OCC5(CN6CCC7(CC6)CC(N6CCC(c8ccc9c(C%10CCC(=O)NC%10=O)nn(C)c9c8)CC6)C7)CC5)nc4c3F)c12 (stereo partly shown) [Compound 86] | 459 | 0.158 | 75.8 | – |
| 70 to 75 | 70 to 75 | – | 1 to 10 | 16.4 | 109 | 409 | 23.9 | – | – | – | – | 9.51 | – | CCc1c(F)ccc2cc(O)cc(-c3ncc4c(N5CCC[C@@](C)(O)C5)nc(OCC5(CN6CCC(CN7CCC(c8ccc9c(C%10CCC(=O)NC%10=O)nn(C)c9c8)CC7)CC6)CC5)nc4c3F)c12 (stereo partly shown) [Compound 101] | 463 | 0.214 | – | – |
| – | – | 81 | 1 to 10 | 3.61 | 7.83 | – | 17.1 | – | – | – | – | – | > 75 | CCc1c(F)ccc2cc(O)cc(-c3ncc4c(N5CCC[C@]6(CCO6)C5)nc(OCC5(CN6CCC7(CC6)CC(N6CCC(c8cc9c(cc8F)c(N8CCC(=O)NC8=O)nn9C)CC6)C7)CC5)nc4c3F)c12 [Compound 202] | – | 0.06 | – | 75.8 |
